The target of data set [1] is NS3/4A protease gt 1b A156V (Hepatitis C virus genotype 1b, UniProt P26663, A1182V). Put plainly: HCV NS3 protease time-resolved fluorescence (TRF) assay, NS3/4A inhibitory activity (Ki), gt 1b A156V. It is filed as biochemical. As for the experimental part:
(§1) The HCV NS3 protease inhibitory activity of the present compounds may be tested using assays known in the art. One such assay is HCV NS3 protease time-resolved fluorescence (TRF) assay as described below and in WO 2006/102087. Other examples of such assays are described in, for example, WO 2005/046712. HCV NS3 protease inhibitors, such as those described herein have a Ki less than 50 μM, such as less than 10 μM, and less than 100 nM. Ki is determined by an NS3 protease assay. The assay is performed in a final volume of 100 μl in assay buffer containing 50 mM HEPES, pH 7.5, 150 mM NaCl, 15% glycerol, 0.15% TRITON X-100, 10 mM DTT, and 0.1% PEG 8000. NS3 protease is preincubated with various concentrations of inhibitors in DMSO for 30 minutes. The reaction is initiated by adding the TRF peptide substrate (final concentration 100 nM). NS3 mediated hydrolysis of the substrate is quenched after 1 hour at room temperature with 100 μl of 500 mM MES, pH 5.5. Product fluorescence is detected using either a VICTOR V2 or FUSION fluorophotometer (PERKIN ELMER LIFE AND ANALYTICAL SCIENCES) with excitation at 340 nm and emission at 615 nm with a 400 μs delay. Testing concentrations of different enzyme forms are selected to result in a signal to background ratio (SIB) of 10-30. IC50 values are derived using a standard four-parameter fit to the data. Ki values are derived from IC50 values using the following formula, IC50=Ki(1+[S]/KM), Eqn (1), where [S] is the concentration of substrate peptide in the reaction and KM is the Michaelis constant. See Paola Gallinari et al., Modulation of Hepatitis C Virus NS3 Protease and Helicase Activities through the Interaction with NS4A, 38 BIOCHEM. 5620 (1999); Paola Gallinari et al., Multiple Enzymatic Activities Associated with Recombinant NS3 Protein of Hepatitis C Virus, 72(8) J. VIROLOGY 6758 (1998); Mariana Taliani et al., A Continuous Assay of Hepatitis C Virus Protease Based on Resonance Energy Transfer Depsipeptide Substrates, 240 ANAL. BIOCHEM. 60 (1996).
(§2) This NS3 protease assay was performed in a final volume of 100 μl assay buffer containing 50 mM HEPES, pH 7.5, 150 mM NaCl, 15% glycerol, 0.15% TRITON X-100, 10 mM DTT, and 0.1% PEG 8000. NS3/4A protease was pre-incubated with various concentrations of inhibitors in DMSO for 30 minutes. The reaction was initiated by adding the TRF peptide substrate (final concentration 100 nM). NS3 mediated hydrolysis of the substrate was quenched after 1 hour at RT with 100 μl of 500 mM MES, pH 5.5. Product fluorescence was detected using either a V1CTOR V2 or FUSION fluorophotometer (PERKIN ELMER LIFE AND ANALYTICAL SCIENCES) with excitation at 340 nm and emission at 615 nm with a 400 us delay. Testing concentrations of different enzyme forms were selected to result in a signal to background ratio (SIB) of 10-30. IC50 values were derived using a standard four-parameter fit to the data. K, values are derived from IC50 values using the following formula, IC50=Ki(1+[S]/KM), Eqn (1), where [S] is the concentration of substrate peptide in the reaction and KM is the Michaelis constant. See Paola Gallinari et al., Modulation of Hepatitis C Virus NS3 Protease and Helicase Activities through the Interaction with NS4A, 38 BIOCHEM. 5620 (1999); Paola Gallinari et al., Multiple Enzymatic Activities Associated with Recombinant NS3 Protein of Hepatitis C Virus, 72(8) J. VIROLOGY 6758 (1998); Mariana Milani et al., A Continuous Assay of Hepatitis C Virus Protease Based on Resonance Energy Transfer Depsipeptide Substrates, 240 ANAL. BIOCHEM. 60 (1996); Shi-Shan Mao et al., A time-resolved, internally quenched fluorescence assay to characterize inhibition of hepatitis C virus nonstructural protein 3-4A protease at low enzyme concentrations, 373 ANALYTICAL BIOCHEMISTRY 1 (2008). Measuring Compound Inhibitory Potency (Replicon EC50 (nM))

The next data set deals with NS3/4A protease gt 1b (Hepatitis C virus genotype 1b, UniProt P26663). Put plainly: HCV NS3 protease time-resolved fluorescence (TRF) assay, NS3/4A inhibitory activity (Ki), gt 1b. It is filed as biochemical. Particulars: NS3/4A enzyme. As for the experimental part:
as §1, §2

In another data set the target is NS3/4A protease gt 3a (Hepatitis C virus genotype 3a, UniProt Q81258). Briefly: HCV NS3 protease time-resolved fluorescence (TRF) assay, NS3/4A inhibitory activity (Ki), gt 3a. The class given is biochemical. Particulars: NS3/4A enzyme. As for the experimental part:
as §1, §2

Another data set deals with HCV gt 1b replicon. Put plainly: HCV replicon assay, compound inhibitory potency (Replicon EC50). Particulars: Hepatitis C virus, GT1B. The class given is cell-based. On the procedure:
Measurement of inhibition by compounds was performed using the HCV replicon system. Several different replicons encoding different HCV genotypes or mutations were used. In addition, potency measurements were made using different formats of the replicon assay, including different ways of measurements and different plating formats. See Jan M. Vrolijk et al., A replicon-based bioassay for the measurement of interferons in patients with chronic hepatitis C, 110 J. VIROLOGICAL METHODS 201 (2003); Steven S. Carroll et al., Inhibition of Hepatitis C Virus RNA Replication by 2′-Modified Nucleoside Analogs, 278(14) J. BIOLOGICAL CHEMISTRY 11979 (2003). However, the underlying principles are common to all of these determinations, and are outlined below.
Stable neomycin phosphotransferase encoding replicon-harboring cell lines were used, so all cell lines were maintained under G418 selection prior to the assay. In some cases the cell lines encoded a luciferase:NEO FUSION and could be assayed either directly by determination of RNA copy number, or indirectly through measurement of the luciferase activity.
To initiate an assay, replicon cells were plated in the presence of a dilution series of test compound in the absence of G418. Typically, the assays were performed in a 96-well plate format for manual operation, or a 384-well plate in an automated assay. Replicon cells and compound were incubated for 24 to 48 hours, depending on the assay. At the end of the assay, cells are washed free of media and compound and then lysed. For direct quantitation, RNA levels were measured by 32P-probe hybridization and protection, or in a TAQMAN-based assay and normalized to cellular cyclophilin A RNA levels. In some cases, luciferase activity was measured using a conventional luciferase assay. In all cases, EC50 determinations were calculated as a percent of a DMSO control by fitting the data to a four-parameter fit function.
(In antiviral work, replicon cells carry a viral genome segment that copies itself.)

Data set [2] can be described thus: Plasma and liver concentrations and pharmacokinetics (Rat PK). Also on record: Rat PK 5 mpk AUC: unit not given here. The following applies: for concentration at 4 h: 5 mg/kg, 5 mpk, liver concentration at 4 h; for Rat PK 5 mpk AUC: area under the plasma concentration/time curve. It is filed as in vivo. As for the experimental part: Test compounds were dissolved in a suitable dosing vehicle for i.v. administration (e.g., 20%:60%:20% DMSO:PEG400:H2O) or per oral administration (e.g., 10% POLYSORBATE80:90% H2O or 100% PEG400). Animals were administered (n=2 or 3) using a crossover study design for non-rodents. Plasma samples were collected at time points between 2 minutes and 24 hours, and compound levels were determined by RP-LC/MS/MS. Liver samples were collected post-mortem in rat. Liver samples were weighed, homogenized, and diluted using techniques known to those skilled in the art, and compound levels were determined by RP-LC/MS/MS.
Pharmacokinetic parameters were calculated based on non-compartmental analysis (e.g., using WATSON, WINNOLIN). Predose concentrations that were below the limit of quantitation (BLQ) were assigned a value of 0, Standard pharmacokinetic parameters CLp, Vdss, half-life (only for IV), % F, Cmax, Tmax, AUC0-last, AUC0-infinity were calculated. AUC values were calculated using linear trapezoidal method for ascending concentrations and the log trapezoidal method for descending concentrations.

The mark [3] stands for this setting: 10% fetal bovine serum, read-out: gt 1b Replicon EC50 10% FBS.
Where [4] appears, read: 50% normal human serum, read-out: gt 1b Replicon EC50 50% NHS.

Data on five molecules can be found in patent US8828930B2, “Hepatitis C virus NS3 protease inhibitors” (Merck Sharp & Dohme Corp., priority 2009, dated 2014).

The term Ki denotes the equilibrium dissociation constant of an inhibitor or competing ligand from its target. By EC50 is commonly meant the concentration that produces a half-maximal response.

Like-named read-outs stand apart in the source and are kept apart here.

In the case of `COc1ccc2nc3c(nc2c1)O[C@@H]1C[C@H]2C(=O)N[C@]4(C(=O)NS(=O)(=O)C5CC5)C[C@H]4/C=C\CCCCC[C@H](NC(=O)O[C@@H]4CCC[C@H]4CCCCC3)C(=O)N2C1` [Example 1, (3R,20R,24R,28S,34Z,36S,38R,41S)—N-(Cyclopropylsulfonyl)-9-methoxy-26,40,42-trioxo-4,25-dioxa-1,6,13,27,39-pentaazaheptacyclo[26.13.1.1^3,41.0^5,14.0^7,12.0^20,24,0^36,38]tritetraconta-5,7,9,11,13,34-hexaene-38-carboxamide], the Ki was found to be 1.6 nM in data set [1], 0.16 nM on NS3/4A protease gt 1b and 0.45 nM on NS3/4A protease gt 3a. The EC50 is 2 nM with HCV gt 1b replicon (setting [3]) and 9 nM in the data set on HCV gt 1b replicon (setting [4]). In data set [2], this molecule came in with a concentration at 4 h of 3.6 µM. For the same molecule, the “Rat PK 5 mpk AUC” value in data set [2] was determined as 0.

Consider `COc1ccc2nc3c(nc2c1)O[C@@H]1C[C@H]2C(=O)N[C@]4(C(=O)NS(=O)(=O)C5(C)CC5)C[C@H]4/C=C\CCCCC[C@H](NC(=O)O[C@@H]4CCC[C@H]4CCCCC3)C(=O)N2C1` [Example 2, (3R,20R,24R,28S,34Z,36S,38R,41S)-9-Methoxy-N-[(1-methylcyclopropyl)sulfonyl]-26,40,42-trioxo-4,25-dioxa-1,6,13,27,39-pentaazaheptacyclo[26.13.1.1^3,41.0^5,14.0^7,12.0^20,24.0^36,38]tritetraconta-5,7,9,11,13,34-hexaene-38-carboxamide], for which the Ki is 1.1 nM in data set [1], 0.05 nM at NS3/4A protease gt 1b and 0.48 nM on NS3/4A protease gt 3a. The EC50 worked out at 2 nM with HCV gt 1b replicon (setting [3]) and 10 nM in the data set on HCV gt 1b replicon (setting [4]). Further, in data set [2], the concentration at 4 h was 43 µM. The “Rat PK 5 mpk AUC” value in data set [2] came to 0.55.

`COc1ccc2nc3c(nc2c1)O[C@@H]1C[C@H]2C(=O)N[C@]4(C(=O)NS(=O)(=O)C5CC5)C[C@H]4/C=C\CCCCC[C@H](NC(=O)O[C@@H]4C[C@H]4CCCCC3)C(=O)N2C1` [Example 3, (3R,20R,22R,26S,32Z,34S,36R,39S)—N-(Cyclopropylsulfonyl)-9-methoxy-24,38,40-trioxo-4,23-dioxa-1,6,13,25,37-pentaazaheptacyclo[24.13.1.1^3,39.0^5,14.0^7,12.0^20,22.0^34,36]hentetraconta-5,7,9,11,13,32-hexaene-36-carboxamide]: the Ki in data set [1] turned out to be 0.8 nM; at NS3/4A protease gt 1b, 0.02 nM; at NS3/4A protease gt 3a, 0.24 nM. Also, the EC50 is 2 nM in the data set on HCV gt 1b replicon (setting [3]) and 8 nM with HCV gt 1b replicon (setting [4]). The molecule also came in with a concentration at 4 h in data set [2] of 13 µM. For the same molecule, the “Rat PK 5 mpk AUC” value in data set [2] was 0.19.

With `COc1ccc2nc3c(nc2c1)O[C@@H]1C[C@H]2C(=O)N[C@]4(C(=O)NS(=O)(=O)C5(C)CC5)C[C@H]4/C=C\CCCCC[C@H](NC(=O)O[C@@H]4C[C@H]4CCCCC3)C(=O)N2C1` [Example 4, (3R,20R,22R,26S,32Z,34S,36R,39S)-9-Methoxy-N-[(1-methylcyclopropyl)sulfonyl]-24,38,40-trioxo-4,23-dioxa-1,6,13,25,37-pentaazaheptacyclo[24.13.1.1^3,39.0^5,14.0^7,12.0^20,22.0^34,36]hentetraconta-5,7,9,11,13,32-hexaene-36-carboxamide], the Ki stood at 0.6 nM in data set [1], 0.04 nM at NS3/4A protease gt 1b and 0.27 nM at NS3/4A protease gt 3a. Further, the EC50 in the data set with HCV gt 1b replicon (setting [3]) was determined as 2 nM; with HCV gt 1b replicon (setting [4]), 4 nM. In data set [2], this molecule showed a concentration at 4 h of 19 µM. In data set [2], the “Rat PK 5 mpk AUC” value stood at 0.1.

In the case of `COc1ccc2nc3c(nc2c1)O[C@@H]1C[C@H]2C(=O)N[C@]4(C(=O)NS(=O)(=O)C5CC5)C[C@H]4/C=C\CCCCC[C@H](NC(=O)O[C@]4(C)C[C@H]4CCCCC3)C(=O)N2C1` [Example 5, (3R,20R,22R,26S,32Z,34S,36R,39S)—N-(Cyclopropylsulfonyl)-9-methoxy-22-methyl-24,38,40-trioxo-4,23-dioxa-1,6,13,25,37-pentaazaheptacyclo[24.13.1.1^3,39.0^5,14.0^7,12.0^20,22.0^34,36]hentetraconta-5,7,9,11,13,32-hexaene-36-carboxamide], the Ki in data set [1] turned out to be 0.7 nM; at NS3/4A protease gt 1b, 0.02 nM; on NS3/4A protease gt 3a, 0.25 nM. The values for the EC50 with HCV gt 1b replicon (setting [3]) and with HCV gt 1b replicon (setting [4]) were 1 nM and 6 nM, respectively. In data set [2], this molecule had a concentration at 4 h of 20 µM. Further, the “Rat PK 5 mpk AUC” value in data set [2] came out at 0.18.
